Measurements reported in patent US11278624B2, “Formulations” (Arecor Limited, priority 2016, dated 2022).

Experiments:
[1] = Visual Assessment Scoring Method B, insulin aspart (100 U/ml) with trisodium citrate, L-histidine or pyrophosphate, storage at 30° C.; type: physicochemical
Method: (§1) European Pharmacepoeia Monograph (Particulate Contamination: Visible Particles).
(§2) The presence of any particles is recorded.
(§3) Visual Assessment Scoring Method B
(§4) Visual score 1: Clear solution, virtually free of particles
(§5) Visual score 2: ˜5 very small particles
(§6) Visual score 3: ˜10-20 very small particles
(§7) Visual score 4: 20-50 particles, including larger particles
(§8) Visual score 5: >50 particles, including larger particles

[2] = Visual Assessment Scoring Method B, insulin lispro (100 U/ml) with citric acid, storage at indicated temperatures; conditions: insulin lispro 100 U/ml with citric acid 22 mM
Description: The apparatus required consists of a viewing station comprising: • a matt black panel of appropriate size held in a vertical position • a non-glare white panel of appropriate size held in a vertical position next to the black panel • an adjustable lampholder fitted with a suitable, shaded, white-light source and with a suitable light diffuser (a viewing illuminator containing two 13 W fluorescent tubes, each 525 mm in length, is suitable).
Any adherent labels are removed from the container and the outside washed and dried. The container is gently swirled or inverted, ensuring that air bubbles are not introduced, and observed for about 5 s in front of the white panel. The procedure is repeated in front of the black panel. The presence of any particles is recorded.
Whilst the particles in samples with visual scores 4 and 5 are clearly detectable on casual visual assessment under normal light, samples with visual score 1-3 generally appear as clear solutions on the same assessment. Samples with visual scores 1-3 are considered to be “Pass”; samples with visual score 4-5 are considered to be “Fail”.
Stability of insulin lispro (100 U/ml) was investigated in formulations comprising citric acid (22 mM), both in the presence and in the absence of polysorbate 80.

[3] = Visual assessment of insulin lispro (100 U/ml) formulations with 0.4 mM EDTA and different surfactants after storage; type: physicochemical; conditions: insulin lispro 100 U/ml with 0.4 mM EDTA; for effect of surfactant on precipitation: 30° C. for 4 weeks
Method: as §1, §2
The effect of different surfactants was tested on stability of insulin lispro (100 U/ml) in the presence of 0.4 mM EDTA. The visual assessment method described in General Methods was used.

[4] = Visual Assessment Scoring Method A, insulin aspart (100 U/ml) with 22 mM sodium citrate, storage at 30° C.; type: physicochemical
Method: as §1, §2
Visual Assessment Scoring Method A
Visual score 1: clear solution free of particles
Visual score 2: slight particle formation
Visual score 3: more significant precipitation

[5] = Visual Assessment Scoring Method B, insulin aspart (1000 U/ml) with trisodium citrate, L-histidine or pyrophosphate; type: physicochemical
Method: as §1, §2, §3, §4, §5, §6, §7, §8

[6] = Visual Assessment Scoring Method B, insulin aspart (1000 U/ml) with different concentrations of citric acid and polysorbate 80; type: physicochemical; conditions: insulin aspart 1000 U/ml with citric acid 44-88 mM
Method: as §1, §2, §3, §4, §5, §6, §7, §8
The stability of insulin aspart (1000 U/ml) was investigated in the presence of different concentrations of citric acid and different concentrations of polysorbate 80. […] Three concentrations of citric acid (44, 66 and 88 mM) and four concentrations of each non-ionic surfactant were tested as well as corresponding surfactant-free compositions.

[7] = Size exclusion chromatography main peak of insulin lispro formulations after storage; type: physicochemical; conditions: insulin lispro 100 U/ml with 0.4 mM EDTA; 30° C. for 4 weeks
[8] = 25° C.; as quoted by NIST reference database 46; cited from earlier work

Compound: poloxamer 188
- effect of surfactant on particle formation rate [1]: worse than that of polysorbate 80
- effect of surfactant on destabilising effect of citric acid [2]: notably weaker than that of polysorbate 80

Compound: polyoxyethylene (20) sorbitan monooleate [polysorbate 80]
- stability after storage at 30° C. for 4 weeks ([3]; visual, SEC and RP-HPLC taken together): almost comparable with the EDTA-free control
- effect of surfactant on rate of particle formation [4]: considerable reduction in the rate of particle formation
- effect of surfactant on particle formation rate [1]: stabilising effect
- effect of surfactant on rate of particle formation [5]: stabilising effect
- effect of surfactant on rate of particle formation [6]: reduction in the rate of particle formation
- effect of surfactant on destabilising effect of citric acid [2]: appeared to mitigate the destabilising effect

Compound: CC(C)(C)CC(C)(C)c1ccc(OCCOCC[N+](C)(C)Cc2ccccc2)cc1 [benzethonium chloride]
- effect of surfactant on precipitation [3]: prevented precipitation
- effect of surfactant on reduction in size of the main peak on SEC and RP-HPLC chromatograms [7]: did not prevent

Compound: CCCCCCCCCCCCO[C@@H]1O[C@H](CO)[C@@H](O[C@H]2O[C@H](CO)[C@@H](O)[C@H](O)[C@H]2O)[C@H](O)[C@H]1O [dodecyl maltoside]
- effect of surfactant on precipitation [3]: prevented precipitation
- effect of surfactant on reduction in size of the main peak on SEC and RP-HPLC chromatograms [7]: did not prevent

Compound: N[C@@H](Cc1c[nH]cn1)C(=O)O [histidine]
- log K metal binding stability constant with respect to zinc binding [8]: 6.51

Compound: O=C(O)CN(CCOCCOCCN(CC(=O)O)CC(=O)O)CC(=O)O [EGTA, ethyleneglycoltetraacetate]
- log K metal binding stability constant with respect to zinc binding [8]: 12.6

Compound: O=C(O)CC(O)(CC(=O)O)C(=O)O [citrate]
- log K metal binding stability constant with respect to zinc binding [8]: 4.93

Compound: O=P(O)(O)OP(=O)(O)O [pyrophosphate]
- log K metal binding stability constant with respect to zinc binding [8]: 8.71

Compound: O=C(O)CN(CCN(CC(=O)O)CC(=O)O)CC(=O)O [EDTA, ethylenediaminetetraacetate]
- log K metal binding stability constant with respect to zinc binding [8]: 14.5

Compound: polyoxyethylene (20) sorbitan monolaurate [Polysorbate 20]
- effect of surfactant on particle formation rate [1]: not effective at all
- effect of surfactant on destabilising effect of citric acid [2]: notably weaker than that of polysorbate 80

Compound: CCCCCCCCCCCCC[N+](C)(C)Cc1ccccc1 [benzalkonium chloride]
- effect of surfactant on precipitation [3]: prevented precipitation
- effect of surfactant on reduction in size of the main peak on SEC and RP-HPLC chromatograms [7]: did not prevent
